Results reported in US20190256827A1, “EPIGENOME EDITING SYSTEMS AND METHODS” (STC.UNM, priority 2017, published 2019).

Key:
Type in all cases: cell-based, human
[1] = test system: TIR1*/AID dimerization, inducible EGFP reporter in HEK293T cells; test: IAA-inducible EGFP transcriptional activation assay (GAL4DBD-TIR1* or GAL4DBD-TIR1^WT with VP16AD-AID); details: with or without IAA for 24 hours
Text: Based on sequence alignment analysis against Arabidopsis thaliana TIR1, a mutant form of Oryza sativa TIR1 (TIR1*) was engineered. TIR1* contained a double mutation, where glutamic acid residues at position 7 and position 10 were replaced with lysine residues (YFPEKVVKHIFSFL, SEQ ID NO:125) that inhibited the ability of TIR* to interact with the SCF complex. To test if TIR1* indeed no longer mediated IAA-induced degradation, but would still bind to AID in the presence of IAA, an IAA-inducible EGFP transcriptional activation assay was constructed. In this assay, EGFP would only be expressed when a functional transcriptional activator was reconstituted by IAA from the two split halves (a DNA binding domain, DBD, and an activation domain, AD, each linked to an IAA-dimerizable protein, TIR* and AID). DNA constructs were made that encoded fusion proteins of GAL4DBD-TIR1*, GAL4DBD-TIR1^WT (the mutant (TIR*) and the wild type TIR1 (TIR1^WT) fused to DBD from GAL4, respectively) and VP16AD-AID (AID fused to VP16 AD). If the AID fusion protein was degraded or the dimerization of TIR1 and AID was disrupted, no EGFP expression would occur. Either GAL4DBD-TIR1* or GAL4DBD-TIR1^WT was co-transfected with VP16AD-AID and an inducible EGFP reporter construct that contains 5×GALDBD binding sites into HEK293T cells with or without the addition of IAA for 24 hours.

[2] = test system: GAL4DBD-TIR1*/VP16AD-AID, inducible luciferase reporter in HEK293T cells; test: Inducible luciferase reporter assay, IAA-responsive system (orthogonality and reversibility)
Protocol: To ensure that IAA and ABA could be used to independently control two histone modification editing events, the orthogonality between these two systems was tested. HEK293T cells were co-transfected with either GAL4DBD-TIR1*/VP16AD-AID (responsive to IAA) or GAL4DBD-ABI/VP16AD-PYL (responsive to ABA), and an inducible luciferase reporter construct. This was followed by treating cells with either IAA or ABA (or DMSO as a control) for 24 hours. […] To test the reversibility of IAA-induced dimerization, in which it was critical to achieve precise temporal control, HEK293T cells were co-transfected with GAL4DBD-TIR1*, VP16AD-AID, and an inducible luciferase expression construct, and then treated cells with 50 μM IAA for 24 hours. Cells were then washed with fresh media without IAA to remove the inducer (or no washing as a control). They were then harvested for luciferase assays after washing.

[3] = test system: IL1RN mRNA in HEK293T cells; test: qPCR of IL1RN mRNA levels (dCas9-PYL-HA, FLAG-ABI-P300, sgRNAs)
Protocol: To study how IL1RN expression levels change, total RNAs from the cell lysates generated in the above experiment were purified and then subjected to qPCR analysis to quantify mRNA levels.
Human embryonic kidney cell HEK293T (American Type Culture Collection, Manassas, Va.) was cultured in Dulbecco's modified Eagle's medium (DMEM) (Gibco) with 10% FBS (Atlanta Biologicals), 1× GlutaMax (Gibco, Thermo Fisher Scientific, Inc., Waltham, Mass.), and 1× penicillin/streptomycin (Pen/Strep; Gibco, Thermo Fisher Scientific, Inc., Waltham, Mass.). Cells (100,000/ml) were plated in 24-well or 10-cm cell culture plate the day before transfection. For each well of 24-well plate transfection, 500 ng of dCas9-PYL-HA, 420 ng of FLAG-ABI-P300, and a total amount of 200-ng mix of gRNAs, with a 50-ng per each gRNA, were mixed with 50×(v/w) Opti-MEM (Gibco, Thermo Fisher Scientific, Inc., Waltham, Mass.), then incubate with the same volume of 3 μg PEI-Opti-MEM solution for 20 minutes at room temperature. Then, 100 μL of PEI-combined plasmids were added to every single well of 24-well plate and cultured for 24 hours before experiments were performed. For a 10 cm plate, 1 mL of PEI-combined plasmids were needed. After six hours transfection, cells were washed and incubated for another 1-72 hours before experiments were performed.
Total RNA was extracted using the EZNA Total RNA Kit I (Omega Bio-tek, Inc., Norcross, Ga.). qPCR reactions were performed on cDNA prepared from 1,000 ng of total cellular RNA using the High-Capacity cDNA Reverse Transcription Kit (Applied Biosystems Co., Thermo Fisher Scientific, Inc., Foster City, Calif.). TaqMan qPCR probes (Thermo Fisher Scientific, Inc., Waltham, Mass. IL1RN, Hs00893626; GRM2, Hs00968358; HBA, Hs00361191; MYOD1 Hs02330075; GAPDH, Hs99999905) and Fast Advanced Master Mix (Life Technologies Co., Co., Thermo Fisher Scientific, Inc., Carlsbad, Calif.) were used in multiplexed reactions and 384-well format in a 7900HT Fast Real-Time PCR System (Applied Biosystems Co., Thermo Fisher Scientific, Inc., Foster City, Calif.). All measurements were performed at least in triplicate. Data were analyzed using the SDS software, version 2.4 (Applied Biosystems Co., Thermo Fisher Scientific, Inc., Foster City, Calif.), by the ΔΔCt method: the Ct values of target gene were normalized to Ct values of GAPDH, the folds of target gene expression changes were normalized to experimental controls. Analyzed data are reported as the mean±s.e.m. for biological replicates. In ChIP assays, the Ct values of antibodies pulled down segments were normalized to the Ct values of 10% input.

SMILES | expression of EGFP [1] | reversibility of IAA-induced luciferase expression after washing ([2]; 50 μM IAA for 24 hours, then washed with fresh media without IAA) | luciferase expression, IAA-responsive system ([2]; treated with IAA or ABA or DMSO for 24 hours) | IL1RN mRNA expression with caged ABA, no UV light ([3]; 20 μM ABA-DMNB, not irradiated, vs DMSO) | IL1RN mRNA levels after uncaging by UV light ([3]; ABA-DMNB uncaged by exposure to UV light)
O=C(O)Cc1c[nH]c2ccccc12 [IAA, indole-3-acetic acid] | Only the combination of the TIR1 mutant TIR* and the IAA addition induced the expression of EGFP | readily reversible | Only the proper combination of inducer with corresponding binding proteins could induce luciferase expression | – | –
COc1cc(COC(=O)/C=C(C)\C=C\[C@@]2(O)C(C)=CC(=O)CC2(C)C)c([N+](=O)[O-])cc1OC [ABA-DMNB] | – | – | – | at levels of negative control (DMSO) | mRNA levels increased
